Laboratory results: article PMC3904261 (British Journal of Pharmacology, 2013)
Bridge positions count the residues as written; N and C are the ends. Ends that are not written are not given here.

Experiments:
CGRP receptor [1] = target: T1, CGRP receptor (Homo sapiens, UniProt O60894+Q16602); assay: Displacement of 125I-CGRP binding to SK-N-MC cell membranes; set-up: relative expression levels of the receptors (endogenous vs. overexpressed); endogenous in cells; host or cells: SK-N-MC cells (ECACC clone; ATCC clone for [Cys5]-CGRP); conditions: 125I-CGRP binding, SK-N-MC membranes; listed as [Cys^5]-CGRP
T1 sequence (Q16602 23-461): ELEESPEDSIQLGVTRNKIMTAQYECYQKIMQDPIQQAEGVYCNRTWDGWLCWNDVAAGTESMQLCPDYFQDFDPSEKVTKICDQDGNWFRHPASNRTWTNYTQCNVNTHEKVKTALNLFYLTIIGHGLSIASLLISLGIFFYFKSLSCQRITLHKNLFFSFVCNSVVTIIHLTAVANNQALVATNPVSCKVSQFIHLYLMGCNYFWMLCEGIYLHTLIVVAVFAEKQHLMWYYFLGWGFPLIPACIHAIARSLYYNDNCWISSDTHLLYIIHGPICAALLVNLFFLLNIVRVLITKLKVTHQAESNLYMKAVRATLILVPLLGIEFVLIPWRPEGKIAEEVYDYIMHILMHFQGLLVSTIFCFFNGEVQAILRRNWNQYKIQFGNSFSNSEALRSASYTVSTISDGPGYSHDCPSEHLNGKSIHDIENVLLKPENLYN
T1 sequence (O60894 27-148): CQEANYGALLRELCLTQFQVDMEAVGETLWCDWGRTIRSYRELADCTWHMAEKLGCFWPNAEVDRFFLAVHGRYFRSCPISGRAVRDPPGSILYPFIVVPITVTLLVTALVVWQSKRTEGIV
Protocol: (§1) GraphPad Prism 5.00 or 6.00 (GraphPad Software Inc., San Diego, CA, USA) was used for data fitting. Concentration–response curves were fitted to a sigmoidal function with Hill slope constrained to unity to obtain pEC50 and maximum responses (Emax) values. Displacement curves were analysed to obtain pIC50 values. Schild plots were fitted by linear regression to obtain slope and intercepts. pEC50 and pIC50 values were compared with that of human αCGRP using Dunnett's test with either a normal or repeated measures one-way ANOVA, as appropriate.

CGRP receptor [2] = target: T1, CGRP receptor; assay: cAMP production in SK-N-MC cells; type: cell-based; set-up: relative expression levels of the receptors (endogenous vs. overexpressed); endogenous in cells; host or cells: SK-N-MC cells (ECACC clone; ATCC clone for [Cys5]-CGRP)
Protocol: (§2) Production of cAMP in SK-N-MC cells for all analogues except [[…]]-hαCGRP was by a radioreceptor assay, as described previously (Poyner et al., [1998]). […] For [[…]]-hαCGRP, a different clone of SK-N-MC cells was used and cAMP production was measured via AlphaScreen (Perkin Elmer, Wellesley, MA, USA), as described previously ([…] et al., [2010]). This assay was also used to investigate the action of all derivatives at the AMY1(a) receptor and other experiments using Cos 7 cells. […] GraphPad Prism 5.00 or 6.00 (GraphPad Software Inc., San Diego, CA, USA) was used for data fitting. Concentration-response curves were fitted to a sigmoidal function with Hill slope constrained to unity to obtain pEC50 and maximum responses (Emax) values. Displacement curves were analysed to obtain pIC50 values. Schild plots were fitted by linear regression to obtain slope and intercepts. pEC50 and pIC50 values were compared with that of human αCGRP using Dunnett's test with either a normal or repeated measures one-way ANOVA, as appropriate.

CGRP receptor [3] = target: T1, CGRP receptor; assay: β-arrestin 2 translocation in CHO-K1 cells (PathHunter eXpress); type: cell-based; set-up: host or cells: CHO-K1 (PathHunter eXpress β-arrestin kit)
Protocol: as §1

CGRP receptor [4] = target: T1, CGRP receptor; assay: Antagonism of CGRP-stimulated cAMP production in SK-N-MC cells; type: cell-based; set-up: relative expression levels of the receptors (endogenous vs. overexpressed); endogenous in cells; host or cells: SK-N-MC cells (ECACC clone; ATCC clone for [Cys5]-CGRP)
Protocol: as §2

CGRP receptor [5] = target: T1, CGRP receptor; assay: cAMP production in Cos 7 cells transfected with CLR and RAMP1; type: cell-based; set-up: relative expression levels of the receptors (endogenous vs. overexpressed); endogenous in cells; host or cells: SK-N-MC cells (ECACC clone; ATCC clone for [Cys5]-CGRP); conditions: read-out: Emax, % of that of CGRP, AlphaScreen
Protocol: as §2, with “SK-N-MC cells were grown in DMEM/F12 medium supplemented with 10% fetal calf serum as described previously (Poyner et al., [1998]). […] Production” for “Production”

AMY1(a) receptor = target: T2, AMY1(a) receptor (Homo sapiens, UniProt O60894+P30988); assay: cAMP production in Cos 7 cells via the AMY1(a) receptor; type: cell-based
T2 construct: HA; expressed in transfected cells; host or cells: Cos 7
T2 sequence (P30988 25-474): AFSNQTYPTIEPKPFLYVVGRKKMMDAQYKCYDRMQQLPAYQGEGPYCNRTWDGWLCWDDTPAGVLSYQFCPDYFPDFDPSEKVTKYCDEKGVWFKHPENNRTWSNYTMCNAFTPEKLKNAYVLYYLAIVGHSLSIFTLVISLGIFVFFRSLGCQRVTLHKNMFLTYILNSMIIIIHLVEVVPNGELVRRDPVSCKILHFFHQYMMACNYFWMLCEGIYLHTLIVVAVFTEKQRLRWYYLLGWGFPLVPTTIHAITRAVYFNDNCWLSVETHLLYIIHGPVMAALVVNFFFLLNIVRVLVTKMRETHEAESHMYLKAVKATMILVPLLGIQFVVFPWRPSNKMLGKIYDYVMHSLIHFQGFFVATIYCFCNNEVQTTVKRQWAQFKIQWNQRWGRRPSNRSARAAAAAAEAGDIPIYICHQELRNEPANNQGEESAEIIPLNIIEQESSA
T2 sequence (O60894 27-148): as the sequence (O60894 27-148) above
Protocol: as §2, with “SK-N-MC cells were grown in DMEM/F12 medium supplemented with 10% fetal calf serum as described previously (Poyner et al., [1998]). […] Production” for “Production”

[6] = tested on: porcine iris ciliary body; conditions: ref Heino et al., 1998; cited from earlier work
Description: Similarly, substitution of Thr-6 ...

[7] = radioreceptor assay, approx. 10 min, means ± SEM, n = 3–6, listed as [Cys^6]
[8] = 2 h stimulation, means ± SEM, n = 3, listed as [Cys^6]
[9] = AlphaScreen, means ± SEM, n = 3–6, listed as [Cys^6]

Row | Molecule | decrease in affinity compared with CGRP (CGRP receptor [1]) | decrease in potency on cAMP compared with CGRP (CGRP receptor [2]; SK-N-MC cells) | stimulation of cAMP production (CGRP receptor [2]; SK-N-MC cells, [Asp6] and [Lys6] at concentrations of up to 10 μM) | cAMP (SK-N-MC) Emax (% CGRP) CGRP analogue (CGRP receptor [2]; [7]) | cAMP (SK-N-MC) pEC50 CGRP analogue (CGRP receptor [2]; [7]) | β-Arrestin (CHO-K1) Emax (% CGRP) CGRP analogue (CGRP receptor [3]; [8]) | β-Arrestin (CHO-K1) pEC50 CGRP analogue (CGRP receptor [3]; [8]) | Emax (CGRP receptor [3]; CHO-K1, CHO-K1 cells, compared with CGRP, read-out: reduction of Emax, β-arrestin 2 translocation) | decrease in potency for β-arrestin 2 translocation compared with CGRP (CGRP receptor [3]; CHO-K1 cells) | stimulation of β-arrestin 2 translocation (CGRP receptor [3]; CHO-K1 cells, [Asp6] and [Lys6] at concentrations of up to 1 μM) | slope of Schild plot (CGRP receptor [4]; listed as [Cys^5]-CGRP) | slope of Schild plot (CGRP receptor [4]; listed as [Cys^6]-CGRP) | Emax (CGRP receptor [5]) | fold less potent than CGRP, cAMP at AMY1(a) receptor (AMY1(a) receptor) | stimulation of cAMP production at AMY1(a) receptor (AMY1(a) receptor) | AMY1(a) receptor-stimulated cAMP Emax (% CGRP) CGRP analogue (AMY1(a) receptor; [9]) | AMY1(a) receptor-stimulated cAMP pEC50 CGRP analogue (AMY1(a) receptor; [9]) | stimulation of cAMP production [6]
1 | CC(C)C[C@H](NC(=O)CNC(=O)[C@H](C)NC(=O)[C@H](CC(C)C)NC(=O)[C@H](CCCNC(=N)N)NC(=O)[C@H](Cc1c[nH]cn1)NC(=O)[C@@H](NC(=O)[C@@H](NC(=O)[C@@H]1CSSC[C@H](NC(=O)[C@@H](N)CS)C(=O)N[C@@H](CC(=O)O)C(=O)N[C@@H]([C@@H](C)O)C(=O)N[C@@H](C)C(=O)N[C@@H]([C@@H](C)O)C(=O)N1)C(C)C)[C@@H](C)O)C(=O)N[C@@H](CC(C)C)C(=O)N[C@@H](CO)C(=O)N[C@@H](CCCNC(=N)N)C(=O)N[C@@H](CO)C(=O)NCC(=O)NCC(=O)N[C@H](C(=O)N[C@H](C(=O)N[C@@H](CCCCN)C(=O)N[C@@H](CC(N)=O)C(=O)N[C@@H](CC(N)=O)C(=O)N[C@@H](Cc1ccccc1)C(=O)N[C@H](C(=O)N1CCC[C@H]1C(=O)N[C@H](C(=O)N[C@@H](CC(N)=O)C(=O)N[C@H](C(=O)NCC(=O)N[C@@H](CO)C(=O)N[C@@H](CCCCN)C(=O)N[C@@H](C)C(=O)N[C@@H](Cc1ccccc1)C(N)=O)C(C)C)[C@@H](C)O)C(C)C)C(C)C)C(C)C [[Cys^1]] | > 270 fold | over 100 fold | unable to stimulate | Undetectable | Undetectable | Undetectable | Undetectable | 45% | ninefold | unable to stimulate | 1.33 ± 0.30 | 0.98 ± 0.20 | 90 ± 8% | 75 fold | no consistent stimulations | Undetectable | Undetectable | 
2 | [Val^6]-CGRP: CGRP analogue substituted at position 6, from Heino et al., 1998 (ACDTAVCVTHRLAGLLSRSGGVVKNNFVPTNVGSKAF-NH2; disulfide 2-7; ends not checked; UniProt P06881 83-119, looked up, variant T6V) |  |  |  |  |  |  |  |  |  |  |  |  |  |  |  |  |  | inactive
